Data as given in patent US9005581B2, “Modified pyrazine derivatives and uses thereof” (MediBeacon, LLC, priority 2008, dated 2015).
Marks after values point to notes of the source that are not given here.

Assays:
[1] = Photophysical properties (fluorescence excitation/emission in PBS); type: physicochemical; details: 10 μM solution in PBS
Method: In general, renally excretable compounds are dissolved in PBS buffer to form a 2 mM stock solution. The UV absorbance properties are determined on a 100 μM solution in PBS using a UV-3101PC UV-Vis-NIR Scanning spectrophotometer system from Shimadzu. The fluorescence properties (λex, λem, and CPS at λem) are determined on a 10 μM solution in PBS using a Fluorolog-3 spectrofluorometer system from Jobin Yvon Horiba. The percent plasma protein binding is determined on a 20 μM compound solution in rat plasma incubated at 37° C. for 1 h. The separation of free from bound is made using an Amicon Centrifree YM-30 device (Regenerated Cellulose 30,000 MWCO) and a Z400K Refrigerated Universal Centrifuge from Hermle. The concentration of protein-free is determined via HPLC analysis using a set of external calibration standards and fluorescence detection.

[2] = Urine elimination studies; type: in vivo, Sprague-Dawley rats; details: rat, 1 mL of 2 mM in PBS by tail vein injection, mean ± SEM (n)
Method: Rat urine elimination studies are conducted in either conscious or anesthetized Sprague-Dawley rats. The test compound (1 mL, 2 mM in PBS) is administered by tail vein injection into conscious, restrained rats, with subsequent collection of urine at the time points of 2, 4 and 6 h post injection. The metabolic cages are washed with water to maximize the recovery of urine discharged at each time point. Alternatively, rats are anesthetized with 100 mg/kg Inactin intraperitoneally, a trachea tube is inserted to maintain adequate respiration, and 1 mL of test compound is injected into the lateral tail vein. Rats are placed on 37° C. heating pad during the entire experiment. At 6 h post injection, the abdomen is opened, and the urine is removed from the bladder using a 21 gauge needle and a 3 cc syringe. Quantitation of each compound in urine is performed via HPLC analysis using a set of external calibration standards and fluorescence detection. The percent recovery of compound in urine at each time point is calculated based on the balance of mass.

[3] = Non-invasive optical pharmacokinetic studies (fluorescence at the ear); type: in vivo, Sprague-Dawley rats; details: rat ear fluorescence, 1 mL of 2 mM solution into tail vein; mean ± SEM (n)
Method: Male Sprague-Dawley rats (330-380 g) are anesthetized by Inactin (I.P.) or 2% Isoflurane gas anesthesia delivered by a small rodent gas anesthesia machine (RC2, Vetequip, Pleasanton, Calif.). The animals are placed on a heated board where temperature is maintained between 36-38° C. One ear lobe is glued flat to a glass slide positioned approximately 2 mm beneath a fiber optic bundle for recording fluorescence from a test compound passing through the ear. After a 100 second baseline recording, 1 mL of a 2 mM solution is injected into the tail-vein of the rat and the fluorescence signal corresponding to plasma and tissue distribution and subsequent renal clearance of the compound is monitored at the ear. The pharmacokinetic parameters of the compounds are analyzed using WinNonLin pharmacokinetic modeling software (Pharsight, Mountain View, Calif.) and Microsoft (Redmond, Wash.) Excel. This method is used to detect renally excretable compounds of the invention and FIG. 8A provides a plot illustrating non-invasive in vivo fluorescence as a function of time following delivery of a renally excretable compound.
A nominal 473 nm solid state laser source (100) is employed (Power Technology model LDCU12/7314). The laser source is directed into one leg (110) of a silica bifurcated fiber optic bundle (120) (Oriel #77565). The common end of this bifurcated bundle (130) is placed approximately 2 mm from the rat ear (140). The second leg of the bifurcated fiber optic bundle (150) is fitted with a collimating beam probe (160) (Oriel #77644). A long pass filter (170) (Semrock LP02-488RS-25) and narrow band interference filter (180) (Semrock FF01-593/40-25) are placed in front of a photomultiplier tube (190) (Hamamatsu photosensor module H7827-011).
A chopper (200) (Stanford Research Systems model SR540) is placed after the laser and before the launch into the bifurcated cable. The output of the photosensor is connected to a lock-in amplifier (210) (Stanford Research Systems model SR830). The lock-in output is digitized (220) (National Instruments NI-USB-6211) and the digitized data is acquired by computer using LabVIEW® data acquisition software (230).

[4] = Invasive pharmacokinetic studies (plasma concentration); type: in vivo, Sprague-Dawley rats; details: rat plasma, 1 mL of 2 mM solution i.v., mean ± SEM (n); for clearance: male, Sprague-Dawley, iv, 1 mL of a 2 mM solution, read-out: Pharmacokinetics Clearance
Method: (§1) Male Sprague-Dawley rats (330-380 g) are anesthetized by Inactin (I.P.). Rats are surgically instrumented with a trachea tube (PE-190) to facilitate breathing and femoral artery and vein catheters (PE-50 filled with 20 units/mL heparinized saline) for blood sampling and drug administration respectively. After administration of 1 mL of a 2 mM solution of agent, approximately 200 μL blood is sampled and placed into a heparinized tube (Microtainer Brand Tube w/Lithium Heparin, BD 365971) at 0, 1, 6, 12, 18, 30, 45, 60, 90, 120 min. The concentration of compound in each centrifuged plasma sample is determined via HPLC analysis using a set of external calibration standards and fluorescence detection. The resulting pharmacokinetic parameters of the compound are analyzed using WinNonLin pharmacokinetic modeling software (Pharsight, Mountain View, Calif.). This method is used to detect renally excretable compounds of the invention and FIG. 8B provides a plot illustrating invasive PK (plasma concentration) as a function of time following delivery of a renally excretable compound.

[5] = Probenecid inhibition studies (invasive pharmacokinetics after probenecid); type: in vivo, Sprague-Dawley rats; details: rat plasma, 70 mg/kg Probenecid 10 min prior to test compound, values in brackets, mean ± SEM (n)
Method: as §1
Six male Sprague-Dawley rats are treated in the same manner as described above in the invasive pharmacokinetic studies. These 6 rats receive 70 mg/kg Probenecid (Sigma-Aldrich; St. Louis, Mo.) 10 min prior to the test compound; this administration is flushed with 0.2 ml NaCl.

SMILES | Photophysical Properties Emission λmax [1] [nm] | Photophysical Properties Excitation λmax [1] [nm] | Percent found in Urine (6 hrs) [2] | Tissue Clearance (Optical) T1/2β [3] | clearance [4] [mL/min] | Pharmacokinetics T1/2β [4] | clearance ([5]; male, Sprague-Dawley, iv, with probenecid 70 mg/kg, 10 min prior to the test compound, read-out: Pharmacokinetics Clearance, probenecid challenge experiment) [mL/min] | Pharmacokinetics T1/2β, probenecid challenge experiment [5]
COCCOCCOCCOCCOCCOCCOCCOCCOCCOCCOCCOCCCNc1nc(C(=O)NCCOCCOCCOCCOCCOCCOCCOCCOCCOCCOCCOCCOC)c(NCCCOCCOCCOCCOCCOCCOCCOCCOCCOCCOCCOCCOC)nc1C(=O)NCCOCCOCCOCCOCCOCCOCCOCCOCCOCCOCCOCCOC [Compound 1, 3,6-Bis(2,5,8,11,14,17,20,23,26,29,32,35-dodecaoxaoctatriacontan-38-ylamino)-N^2,N^5-di(2,5,8,11,14,17,20,23,26,29,32,35-dodecaoxaheptatriacontan-37-yl)pyrazine-2,5-dicarboxamide] | 605 | 500 | 97 ± 0.4 (3)^b Percent | 19.9 ± 2.4 (3) min | 3.1 ± 0.2 | 18.8 ± 0.6 (3) min | 3.3 | [18.0 ± 0.3 (3)]^c min
COCCOCCOCCOCCOCCOCCOCCOCCOCCOCCOCCOCCCNc1nc(C(=O)NCCOCCOCCOCCOCCOCCOCCOCCOCCOCCOCCOCCOCCOCCOCCOCCOCCOCCOCCOCCOCCOCCOCCOCCOC)c(NCCCOCCOCCOCCOCCOCCOCCOCCOCCOCCOCCOCCOC)nc1C(=O)NCCOCCOCCOCCOCCOCCOCCOCCOCCOCCOCCOCCOCCOCCOCCOCCOCCOCCOCCOCCOCCOCCOCCOCCOC [Compound 3, 3,6-Bis(2,5,8,11,14,17,20,23,26,29,32,35-dodecaoxaoctatriacontan-38-ylamino)-N^2,N^5-di(2,5,8,11,14,17,20,23,26,29,32,35,38,41,44,47,50,53,56,59,62,65,68,71-tetracosaoxatriheptacontan-73-yl)pyrazine-2,5-dicarboxamide] | 602 | 499 | 89 ± 2 (3) Percent | 20.4 ± 2.0 (4) min | 2.5 ± 0.2 | 30.5 ± 3.2 (3) min |  | 
COCCOCCOCCOCCOCCOCCOCCOCCOCCOCCOCCOCCOCCOCCOCCOCCOCCOCCOCCOCCOCCOCCOCCOCCCNc1nc(C(=O)NCCOCCOCCOCCOCCOCCOCCOCCOCCOCCOCCOCCOCCOCCOCCOCCOCCOCCOCCOCCOCCOCCOCCOCCOC)c(NCCCOCCOCCOCCOCCOCCOCCOCCOCCOCCOCCOCCOCCOCCOCCOCCOCCOCCOCCOCCOCCOCCOCCOCCOC)nc1C(=O)NCCOCCOCCOCCOCCOCCOCCOCCOCCOCCOCCOCCOCCOCCOCCOCCOCCOCCOCCOCCOCCOCCOCCOCCOC [Compound 5, 3,6-bis(2,5,8,11,14,17,20,23,26,29,32,35,38,41,44,47,50,53,56,59,62,65,68,71-tetracosaoxatetraheptacontan-74-ylamino)-N^2,N^5-di(2,5,8,11,14,17,20,23,26,29,32,35,38,41,44,47,50,53,56,59,62,65,68,71-tetracosaoxatriheptacontan-73-yl)pyrazine-2,5-dicarboxamide] | 603 | 495 | 86 ± 7 (3) Percent | 17.6 ± 0.9 (4) min |  |  |  | 
COCCOCCOCCOCCOCCOCCOCCOCCCNc1nc(C(=O)NCCOCCOCCOCCOCCOCCOCCOCCOCCOCCOCCOCCOCCOCCOCCOCCOCCOCCOCCOCCOCCOCCOCCOCCOC)c(NCCCOCCOCCOCCOCCOCCOCCOCCOC)nc1C(=O)NCCOCCOCCOCCOCCOCCOCCOCCOCCOCCOCCOCCOCCOCCOCCOCCOCCOCCOCCOCCOCCOCCOCCOCCOC [Compound 6, 3,6-bis(2,5,8,11,14,17,20,23-octaoxahexacosan-26-ylamino)-N^2,N^5-di(2,5,8,11,14,17,20,23,26,29,32,35,38,41,44,47,50,53,56,59,62,65,68,71-tetracosaoxatriheptacontan-73-yl)pyrazine-2,5-dicarboxamide] | 603 | 498 | 92 ± 4 (3) Percent | 19.1 ± 0.8 (4) min |  |  |  | 
COCCOCCOCCOCCCNc1nc(C(=O)NCCOCCOCCOCCOCCOCCOCCOCCOCCOCCOCCOCCOCCOCCOCCOCCOCCOCCOCCOCCOCCOCCOCCOCCOC)c(NCCCOCCOCCOCCOC)nc1C(=O)NCCOCCOCCOCCOCCOCCOCCOCCOCCOCCOCCOCCOCCOCCOCCOCCOCCOCCOCCOCCOCCOCCOCCOCCOC [Compound 7, 3,6-Bis(2,5,8,11-tetraoxatetradecan-14-ylamino)-N^2,N^5-di(2,5,8,11,14,17,20,23,26,29,32,35,38,41,44,47,50,53,56,59,62,65,68,71-tetracosaoxatriheptacontan-73-yl)pyrazine-2,5-dicarboxamide] | 602 | 494 | 97 ± 2 (3) Percent | 14.6 ± 1.1 (4) min |  |  |  | 
COCCOCCOCCOCCOCCOCCOCCOCCCNc1nc(C(=O)N[C@H](CO)C(=O)O)c(NCCCOCCOCCOCCOCCOCCOCCOCCOC)nc1C(=O)N[C@H](CO)C(=O)O [Compound 8, 3,6-Bis(2,5,8,11,14,17,20,23-octaoxahexacosan-26-ylamino)-N^2,N^5-bis[(R)-1-carboxy-2-hydroxyethyl]pyrazine-2,5-dicarboxamide] |  |  | 61 ± 7 (3) Percent |  |  |  |  | 
COCCOCCOCCOCCCNc1nc(C(=O)NCC(O)CO)c(NCCCOCCOCCOCCOC)nc1C(=O)NCC(O)CO (stereo not shown) [Compound 13, 3,6-Bis(2,5,8,11-tetraoxatetradecan-14-ylamino)-N^2,N^5-bis(2,3-dihydroxypropyl)pyrazine-2,5-dicarboxamide] |  |  | 29 ± 2 (3) Percent |  |  |  |  | 
COCCOCCOCCOCCCNc1nc(C(=O)NCCOCCOCCOCCOCCOCCOCCOCCOCCOCCOCCOCCOC)c(NCCCOCCOCCOCCOC)nc1C(=O)NCCOCCOCCOCCOCCOCCOCCOCCOCCOCCOCCOCCOC [Compound 15, 3,6-Bis(2,5,8,11-tetraoxatetradecan-14-ylamino)-N^2,N^5-di(2,5,8,11,14,17,20,23,26,29,32,35-dodecaoxaheptatriacontan-37-yl)pyrazine-2,5-dicarboxamide] | 603 | 492 | 86 ± 1 (3) Percent |  |  |  |  | 
